From US20110135739A1, “Oral Formulations of a Hedgehog Pathway Inhibitor” (priority 2009, published 2011)

Assays:
Hedgehog pathway = details: after single administration; cited from earlier work
[1] = Early dissolution experiments / dissolution attempted in various aqueous media; format: physicochemical
Description: Gel formation is problematic from a formulation standpoint because it can result, for example, in irregular release of IPI-926 in vivo. Low rates of dissolution, and subsequent gel formation, persist even when small particle sizes (e.g., less than 150 micrometers) of IPI-926 are employed.
Without wishing to be bound to any particular theory, it was hypothesized that IPI-926 formed the solid agglomerate upon hydration. Accordingly, direct blend formulations were investigated.

[2] = system: human cell lines derived from patients with pancreatic cancer, medulloblastoma, lung cancer, multiple myeloma, acute lymphocytic leukemia, myelodysplatic …; details: described in WO 2008083252 and WO 2008083248; cited from earlier work
[3] = system: preclinical in vivo models, such as medulloblastoma, small cell lung cancer, non-small cell lung cancer, skin cancer, head and neck cancer, and ovarian cancer; details: a number of preclinical in vivo models; cited from earlier work

In the case of CC1=C2C[C@H]3[C@@H](CC[C@@H]4C[C@H](NS(C)(=O)=O)CC[C@@]43C)[C@@H]2CC[C@@]2(C1)O[C@@H]1C[C@H](C)CN[C@H]1[C@H]2C.Cl [IPI-926], the “Hedgehog pathway inhibition in stromal cells” value (Hedgehog pathway) is listed as “rapid and sustained Hedgehog pathway inhibition”, the “behaviour when dissolution is attempted” value [1] is listed as “gel, rather than dissolve” and the “in vitro growth of human cell lines” value [2] is listed as “inhibit in vitro growth”. For the same compound, the tumor growth inhibition [3] was “tumor growth inhibition”.
